Reference: ChEMBL document CHEMBL5726294, “Derivatives of 6-(2,3-dichlorophenyl)-1,2,4-triazin-5-amine” (2019)
Where “and” joins values, the source holds several entries; their conditions need not be identical. Equal values may be shown once.

What was measured:
[1] = molecular target: T1, Sodium channel protein type 9 subunit alpha (Homo sapiens, UniProt Q15858); assay: (§1) Ex-Vivo Potencies in Tonic state: The potencies of the compounds provided herein to block specific Na+ channels was measured using automated patch clamp electrophysiologically of Nav1.7 sodium channels (human SCN9A gene) stably expressed in CHO cells using the IonWorks Barracuda system. Currents were measured from the whole cell patch configuration. From a holding potential of −90 mV, membranes were subjected to a 200 ms pre-pulse to −120 mV, then pulsed to 0 mV to measure blockade of the tonic (resting) state. Inactivated state block was elicited by repolarization to −100 mV (20 ms pulse duration), followed by depolarization to 0 mV (20 ms pulse duration). Peak inward Na+ currents were measured in the presence of vehicle or various concentrations of the test compound to determine the percent block of current.; format: cell-based
T1 sequence (Q15858 whole entry): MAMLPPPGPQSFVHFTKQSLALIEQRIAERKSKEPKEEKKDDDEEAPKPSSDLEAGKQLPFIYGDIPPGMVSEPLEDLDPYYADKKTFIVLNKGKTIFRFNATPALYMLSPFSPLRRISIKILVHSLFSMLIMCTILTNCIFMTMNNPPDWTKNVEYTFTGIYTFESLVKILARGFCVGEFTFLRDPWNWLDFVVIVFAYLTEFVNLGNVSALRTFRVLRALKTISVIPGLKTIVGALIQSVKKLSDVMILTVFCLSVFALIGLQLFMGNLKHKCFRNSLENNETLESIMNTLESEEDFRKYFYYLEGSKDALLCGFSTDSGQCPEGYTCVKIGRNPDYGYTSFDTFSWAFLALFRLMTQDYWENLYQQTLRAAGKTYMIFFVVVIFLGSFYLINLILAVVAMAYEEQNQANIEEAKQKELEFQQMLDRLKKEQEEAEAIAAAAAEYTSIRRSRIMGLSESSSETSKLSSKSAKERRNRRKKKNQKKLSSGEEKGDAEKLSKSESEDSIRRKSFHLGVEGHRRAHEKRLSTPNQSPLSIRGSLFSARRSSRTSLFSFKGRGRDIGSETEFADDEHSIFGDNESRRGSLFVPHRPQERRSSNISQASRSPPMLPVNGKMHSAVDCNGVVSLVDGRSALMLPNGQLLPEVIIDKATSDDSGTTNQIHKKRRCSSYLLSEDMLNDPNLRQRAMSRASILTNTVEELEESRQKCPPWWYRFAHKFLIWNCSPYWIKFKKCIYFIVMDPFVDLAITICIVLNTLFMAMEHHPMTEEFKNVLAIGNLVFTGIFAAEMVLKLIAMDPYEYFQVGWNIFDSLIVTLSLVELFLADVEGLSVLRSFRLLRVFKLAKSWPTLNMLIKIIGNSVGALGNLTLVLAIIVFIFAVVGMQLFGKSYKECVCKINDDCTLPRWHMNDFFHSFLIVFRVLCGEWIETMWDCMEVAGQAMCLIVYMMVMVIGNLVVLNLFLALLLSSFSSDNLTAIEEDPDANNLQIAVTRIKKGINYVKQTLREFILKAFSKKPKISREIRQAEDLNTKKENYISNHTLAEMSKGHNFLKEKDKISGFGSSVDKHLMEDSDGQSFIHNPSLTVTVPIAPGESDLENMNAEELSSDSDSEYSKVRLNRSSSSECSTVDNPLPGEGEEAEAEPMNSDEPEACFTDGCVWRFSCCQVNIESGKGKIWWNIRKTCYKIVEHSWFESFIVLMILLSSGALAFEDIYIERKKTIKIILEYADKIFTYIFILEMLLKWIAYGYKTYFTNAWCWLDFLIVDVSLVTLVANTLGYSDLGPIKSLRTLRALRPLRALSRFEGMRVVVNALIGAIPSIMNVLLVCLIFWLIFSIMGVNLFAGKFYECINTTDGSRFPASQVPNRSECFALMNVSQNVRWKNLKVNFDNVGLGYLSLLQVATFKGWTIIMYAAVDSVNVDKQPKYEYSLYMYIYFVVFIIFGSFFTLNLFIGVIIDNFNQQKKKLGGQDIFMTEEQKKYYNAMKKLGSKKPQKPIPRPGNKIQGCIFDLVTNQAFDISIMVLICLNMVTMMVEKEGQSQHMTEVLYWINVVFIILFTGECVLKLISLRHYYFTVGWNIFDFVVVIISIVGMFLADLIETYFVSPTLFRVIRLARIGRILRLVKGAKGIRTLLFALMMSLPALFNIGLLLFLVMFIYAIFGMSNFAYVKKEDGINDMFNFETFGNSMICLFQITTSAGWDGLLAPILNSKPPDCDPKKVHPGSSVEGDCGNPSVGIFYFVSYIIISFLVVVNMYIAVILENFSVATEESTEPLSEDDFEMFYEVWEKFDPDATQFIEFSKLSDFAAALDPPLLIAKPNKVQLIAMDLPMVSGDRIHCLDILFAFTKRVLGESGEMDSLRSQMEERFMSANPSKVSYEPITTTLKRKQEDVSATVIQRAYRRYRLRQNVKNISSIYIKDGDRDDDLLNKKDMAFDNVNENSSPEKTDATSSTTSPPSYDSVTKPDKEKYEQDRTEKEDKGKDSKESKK

[2] = molecular target: T1, Sodium channel protein type 9 subunit alpha; assay: as §1, with “Inactivated” for “Tonic”; format: cell-based

## Nc1nc(N2CCN[C@H](CO)C2)nnc1-c1cccc(Cl)c1Cl
[1]
  IC50: > 200 µM
[2]
  IC50: 71.8 µM

## Nc1nc(NCCOCCNCC(=O)O)nnc1-c1cccc(Cl)c1Cl
[2]
  IC50: > 300 µM

## Nc1nc(N2CCNCC2)nnc1-c1cc(F)cc(Cl)c1Cl
[1]
  IC50: > 200 µM
[2]
  IC50: 84.5 µM

## Nc1nc(N2CCC(O)(C(F)(F)F)CC2)nnc1-c1cccc(Cl)c1Cl
[1]
  IC50: > 200 µM and 165 µM
[2]
  IC50: 73.9 µM and 59.1 µM

## COCCOCCOCC(C)Nc1nnc(-c2cccc(Cl)c2Cl)c(N)n1 (centres undefined)
[1]
  IC50: > 200 µM
[2]
  IC50: < 50 µM

## Nc1nc(N2CCN(C3CCOCC3)CC2)nnc1-c1cccc(Cl)c1Cl
[1]
  IC50: 147 µM
[2]
  IC50: < 50 µM

## C[C@@H]1CN(c2nnc(-c3cccc(Cl)c3Cl)c(N)n2)C[C@H](C)N1
[1]
  IC50: 112 µM
[2]
  IC50: < 50 µM

## Nc1nc(N2CCN(CC(O)CO)[C@H](CO)C2)nnc1-c1cccc(Cl)c1Cl (some centres undefined)
[1]
  IC50: > 200 µM
[2]
  IC50: 293 µM and 243 µM

## COCCOCCOCC(=O)N1CCN(c2nnc(-c3cc(F)cc(Cl)c3Cl)c(N)n2)CC1
[1]
  IC50: > 200 µM
[2]
  IC50: 146 µM and 220 µM

## COCCOCCOCCOc1ccc(-c2nnc(N)nc2N)c(Cl)c1Cl
[2]
  IC50: > 300 µM

## Nc1nc(N2CC(O)C2)nnc1-c1cccc(Cl)c1Cl
[1]
  IC50: > 132 µM

## CC(CO)Nc1nnc(-c2cccc(Cl)c2Cl)c(N)n1 (centres undefined)
[1]
  IC50: > 200 µM
[2]
  IC50: 127 µM

## C[C@@H]1CN(c2nnc(-c3cc(F)cc(Cl)c3Cl)c(N)n2)C[C@H](C)N1
[1]
  IC50: 92.4 µM
[2]
  IC50: < 50 µM

## Nc1nc(N2CCN(C3CCNCC3)CC2)nnc1-c1cccc(Cl)c1Cl
[1]
  IC50: > 200 µM
[2]
  IC50: 272 µM

## Nc1nc(N2CCN[C@@H](CO)C2)nnc1-c1cc(F)cc(Cl)c1Cl
[1]
  IC50: > 200 µM
[2]
  IC50: 111 µM

## COCCOCCOCCN1CCC(Nc2nnc(-c3cc(F)cc(Cl)c3Cl)c(N)n2)CC1
[1]
  IC50: > 200 µM

## COCCOCCOCCN(C)C1CCN(c2nnc(-c3cccc(Cl)c3Cl)c(N)n2)CC1
[1]
  IC50: 92.5 µM
[2]
  IC50: < 50 µM

## COCCOCCOCCN1CCN(c2nnc(-c3cccc(Cl)c3Cl)c(N)n2)CC1
[1]
  IC50: > 200 µM
[2]
  IC50: 54.9 µM and < 50 µM

## Nc1nc(N2CC(O)(C(F)(F)F)C2)nnc1-c1cccc(Cl)c1Cl
[1]
  IC50: > 200 µM
[2]
  IC50: 291 µM and 249 µM

## Nc1nc(N2CCN[C@H](CO)C2)nnc1-c1cc(F)cc(Cl)c1Cl
[1]
  IC50: > 200 µM
[2]
  IC50: 72.6 µM

## Nc1nc(N2CC(N)C2)nnc1-c1cccc(Cl)c1Cl
[2]
  IC50: 284 µM

## Nc1nc(NC2CCNCC2)nnc1-c1cccc(Cl)c1Cl
[2]
  IC50: > 300 µM

## Nc1nc(N2CC(OCC(F)(F)F)C2)nnc1-c1cccc(Cl)c1Cl
[2]
  IC50: > 300 µM
